From patent publication US20240383872A1, “NOVEL PYRIDINE AND PYRAZINE COMPOUNDS AS INHIBITORS OF CANNABINOID RECEPTOR 2” (HOFFMANN-LA ROCHE INC., priority 2018, published 2024)

Molecular target: human CB2 receptor (CNR2) (Homo sapiens (Human), UniProt P34972)
Test: Radioligand binding assay, human CB2
Details: HEK cell membranes expressing human CNR2, [3H]-CP-55,940 radioligand
Method: The affinity of the compounds of the invention for cannabinoid CB1 receptors was determined using recommended amounts of membrane preparations (PerkinElmer) of human embryonic kidney (HEK) cells expressing the human CNRI or CNR2 receptors in conjunction with 1.5 or 2.6 nM [3H]-CP-55,940 (Perkin Elmer) as radioligand, respectively. Binding was performed in binding buffer (50 mM Tris, 5 mM MgCl2, 2.5 mM EDTA, and 0.5% (wt/vol) fatty acid free BSA, pH 7.4 for CB1 receptor and 50 mM Tris, 5 mM MgCl2, 2.5 mM EGTA, and 0.1% (wt/vol) fatty acid free BSA, pH 7.4 for CB2 receptor) in a total volume of 0.2 ml for 1 h at 30° C. shaking. The reaction was terminated by rapid filtration through microfiltration plates coated with 0.5% polyethylenimine (UniFilter GF/B filter plate; Packard). Bound radioactivity was analyzed for Ki using nonlinear regression analysis (Activity Base, ID Business Solution, Limited), with the Kd values for [3H]CP55,940 determined from saturation experiments. The compounds of formula (I) show an excellent affinity for the CB2 receptor.
The compounds according to formula (I) have an activity in the above assay (Ki) between 0.5 nM and 10 μM. Particular compounds of formula (I) have an activity in the above assay (Ki) between 0.5 nM and 3 μM. Other particular compounds of formula (I) have an activity in the above assay (Ki) between 0.5 nM and 100 nM.

Chain of human CB2 receptor (CNR2) (P34972 whole entry): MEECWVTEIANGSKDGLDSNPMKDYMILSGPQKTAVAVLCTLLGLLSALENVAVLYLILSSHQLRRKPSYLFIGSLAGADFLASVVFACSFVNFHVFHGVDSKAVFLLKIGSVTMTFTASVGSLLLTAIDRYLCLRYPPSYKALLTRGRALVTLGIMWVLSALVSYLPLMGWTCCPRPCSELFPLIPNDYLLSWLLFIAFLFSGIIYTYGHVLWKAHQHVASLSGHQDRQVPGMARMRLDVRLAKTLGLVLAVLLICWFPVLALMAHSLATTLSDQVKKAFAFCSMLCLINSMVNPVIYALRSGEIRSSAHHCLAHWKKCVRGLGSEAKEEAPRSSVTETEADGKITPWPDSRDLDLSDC

`CC(C)C[C@@H](COCCF)NC(=O)c1ccc(N2CCCC2)c(OCC2CC2)n1` [Example 17, 6-(Cyclopropylmethoxy)-N-[(2S)-1-(2-fluoroethoxy)-4-methylpentan-2-yl]-5-(pyrrolidin-1-yl)pyridine-2-carboxamide] gave a Ki of 10 nM.
With `COC1CN(c2ccc(C(=O)N[C@@H](COCCF)CC(C)C)nc2OCC2CC2)C1` [Example 38, 6-(Cyclopropylmethoxy)-N-[(2R)-1-(2-fluoroethoxy)-4-methylpentan-2-yl]-5-(3-methoxyazetidin-1-yl) pyridine-2-carboxamide] the Ki was 1300 nM.
In the case of `COC1CN(c2ccc(C(=O)N[C@@H](C)COCCCF)nc2OCC2CC2)C1` [Example 33, 6-(Cyclopropylmethoxy)-N-[(2S)-1-(3-fluoropropoxy)propan-2-yl]-5-(3-methoxyazetidin-1-yl)pyridine-2-carboxamide], the Ki is reported as 2810 nM.
Compound `COC1CN(c2ccc(C(=O)N[C@H](COCCCF)C(C)C)nc2OCC2CC2)C1` [Example 31, 6-(Cyclopropylmethoxy)-N-[(2S)-1-(3-fluoropropoxy)-3-methylbutan-2-yl]-5-(3-methoxyazetidin-1-yl) pyridine-2-carboxamide] has a Ki of 247 nM.
With `CCC(CC)(NC(=O)c1ccc(N2CC(OC)C2)c(OCC2CC2)n1)C(=O)OCCCF` [Example 3, 3-Fluoropropyl 2-{[6-(cyclopropylmethoxy)-5-(3-methoxyazetidin-1-yl)pyridine-2-carbonyl]amino}-2-ethylbutanoate] the Ki was 6 nM.
With `C[C@@H](COCCCF)NC(=O)c1ccc(N2CCCC2)c(OCC2CC2)n1` [Example 24, 6-(Cyclopropylmethoxy)-N-[(2S)-1-(3-fluoropropoxy)propan-2-yl]-5-(pyrrolidin-1-yl)pyridine-2-carboxamide] the Ki was 671 nM.
For `C[C@@H](COCF)NC(=O)c1ccc(N2CCCC2)c(OCC2CC2)n1` [Example 22, 6-(Cyclopropylmethoxy)-N-[(2S)-1-(fluoromethoxy)propan-2-yl]-5-(pyrrolidin-1-yl)pyridine-2-carboxamide], the Ki was 787 nM.
Compound `CCC(CC)(NC(=O)c1ccc(N2CC(F)(F)C2)c(OCC2CC2)n1)C(=O)OCCF` [Example 5, 2-Fluoroethyl 2-{[6-(cyclopropylmethoxy)-5-(3,3-difluoroazetidin-1-yl)pyridine-2-carbonyl]amino}-2-ethylbutanoate] has a Ki of 7 nM.
`CC(C)C[C@@H](COCCF)NC(=O)c1ccc(N2CC(F)(F)C2)c(OCC2CC2)n1` [Example 26, 6-(Cyclopropylmethoxy)-5-(3,3-difluoroazetidin-1-yl)-N-[(2S)-1-(2-fluoroethoxy)-4-methylpentan-2-yl]pyridine-2-carboxamide] showed a Ki of 24 nM.
`CC(C)C[C@H](COCCF)NC(=O)c1ccc(N2CCCC2)c(OCC2CC2)n1` [Example 37, 6-(Cyclopropylmethoxy)-N-[(2R)-1-(2-fluoroethoxy)-4-methylpentan-2-yl]-5-(pyrrolidin-1-yl)pyridine-2-carboxamide] gave a Ki of 288 nM.
`CCC(CC)(COCCCF)NC(=O)c1ccc(N2CC(OC)C2)c(OCC2CC2)n1` [Example 36, 6-(Cyclopropylmethoxy)-N-{3-[(3-fluoropropoxy)methyl]pentan-3-yl}-5-(3-methoxyazetidin-1-yl)pyridine-2-carboxamide] gave a Ki of 68 nM.
Work on `COC1CN(c2ccc(C(=O)N[C@@H](C)COCCF)nc2OCC2CC2)C1` [Example 32, 6-(Cyclopropylmethoxy)-N-[(2S)-1-(2-fluoroethoxy)propan-2-yl]-5-(3-methoxyazetidin-1-yl)pyridine-2-carboxamide] yielded a Ki of 3120 nM.
With `CC(C)C[C@H](NC(=O)c1ccc(N2CCCC2)c(OCC2CC2)n1)C(=O)OCF` [Example 13, Fluoromethyl N-[6-(cyclopropylmethoxy)-5-(pyrrolidin-1-yl)pyridine-2-carbonyl]-L-leucinate] the Ki was 63 nM.
In the case of `COC1CN(c2ccc(C(=O)N[C@@H](CC(C)C)C(=O)OCCF)nc2OCC2CC2)C1` [Example 11, 2-Fluoroethyl N-[6-(cyclopropylmethoxy)-5-(3-methoxyazetidin-1-yl)pyridine-2-carbonyl]-L-leucinate], the Ki is reported as 15 nM.
`COC1CN(c2ccc(C(=O)N[C@H](COCCF)C(C)C)nc2OCC2CC2)C1` [Example 30, 6-(Cyclopropylmethoxy)-N-[(2S)-1-(2-fluoroethoxy)-3-methylbutan-2-yl]-5-(3-methoxyazetidin-1-yl) pyridine-2-carboxamide] gave a Ki of 165 nM.
With `CCC(CC)(NC(=O)c1ccc(N2CC(OC)C2)c(OCC2CC2)n1)C(=O)OCF` [Example 1, Fluoromethyl 2-{[6-(cyclopropylmethoxy)-5-(3-methoxyazetidin-1-yl)pyridine-2-carbonyl]amino}-2-ethylbutanoate] the Ki was 2 nM.
Compound `CCC(CC)(NC(=O)c1ccc(N2CCCC2)c(OCC2CC2)n1)C(=O)OCCCF` [Example 7, 3-Fluoropropyl 2-{[6-(cyclopropylmethoxy)-5-(pyrrolidin-1-yl)pyridine-2-carbonyl]amino}-2-ethylbutanoate] has a Ki of 5 nM.
Compound `CCC(CC)(NC(=O)c1ccc(N2CC(F)(F)C2)c(OCC2CC2)n1)C(=O)OCF` [Example 4, Fluoromethyl 2-{[6-(cyclopropylmethoxy)-5-(3,3-difluoroazetidin-1-yl)pyridine-2-carbonyl]amino}-2-ethylbutanoate] has a Ki of 6 nM.
`CC(C)C[C@H](NC(=O)c1ccc(N2CCCC2)c(OCC2CC2)n1)C(=O)OCCF` [Example 14, 2-Fluoroethyl N-[6-(cyclopropylmethoxy)-5-(pyrrolidin-1-yl)pyridine-2-carbonyl]-L-leucinate] gave a Ki of 15 nM.
In the case of `CC(C)C[C@@H](COCCCF)NC(=O)c1ccc(N2CCCC2)c(OCC2CC2)n1` [Example 18, 6-(Cyclopropylmethoxy)-N-[(2S)-1-(3-fluoropropoxy)-4-methylpentan-2-yl]-5-(pyrrolidin-1-yl) pyridine-2-carboxamide], the Ki is reported as 40 nM.
`CCC(CC)(NC(=O)c1ccc(N2CCCC2)c(OCC2CC2)n1)C(=O)OCF` [Example 8, 3- Fluoromethyl 2-{[6-(cyclopropylmethoxy)-5-(pyrrolidin-1-yl)pyridine-2-carbonyl]amino}-2-ethylbutanoate] showed a Ki of 2 nM.
In the case of `COC1CN(c2ccc(C(=O)N[C@H](COCF)C(C)C)nc2OCC2CC2)C1` [Example 29, 6-(Cyclopropylmethoxy)-N-[(2S)-1-(fluoromethoxy)-3-methylbutan-2-yl]-5-(3-methoxyazetidin-1-yl) pyridine-2-carboxamide], the Ki is reported as 269 nM.
Compound `CCC(CC)(NC(=O)c1ccc(N2CC(F)(F)C2)c(OCC2CC2)n1)C(=O)OCCCF` [Example 6, 3-Fluoropropyl 2-{[6-(cyclopropylmethoxy)-5-(3,3-difluoroazetidin-1-yl)pyridine-2-carbonyl]amino}-2-ethylbutanoate] has a Ki of 19 nM.
Compound `CCC(CC)(COCCF)NC(=O)c1ccc(N2CC(OC)C2)c(OCC2CC2)n1` [Example 35, 6-(Cyclopropylmethoxy)-N-{3-[(2-fluoroethoxy)methyl]pentan-3-yl}-5-(3-methoxyazetidin-1-yl) pyridine-2-carboxamide] has a Ki of 62 nM.
Work on `CC(C)[C@@H](COCF)NC(=O)c1ccc(N2CCCC2)c(OCC2CC2)n1` [Example 19, 6-(Cylopropylmethoxy)-N-[(2S)-1-(fluoromethoxy)-3-methylbutan-2-yl]-5-(pyrrolidin-1-yl)pyridine-2-carboxamide] yielded a Ki of 70 nM.
With `CC(C)[C@@H](COCCF)NC(=O)c1ccc(N2CCCC2)c(OCC2CC2)n1` [Example 20, 6-(Cyclopropylmethoxy)-N-[(2S)-1-(2-fluoroethoxy)-3-methylbutan-2-yl]-5-(pyrrolidin-1-yl)pyridine-2-carboxamide] the Ki was 60 nM.
Compound `COC1CN(c2ccc(C(=O)N[C@H](COCCF)CC(C)C)nc2OCC2CC2)C1` [Example 27, 6-(Cyclopropylmethoxy)-N-[(2S)-1-(2-fluoroethoxy)-4-methylpentan-2-yl]-5-(3-methoxyazetidin-1-yl) pyridine-2-carboxamide] has a Ki of 18 nM.
`CCC(CC)(NC(=O)c1ccc(N2CCCC2)c(OCC2CC2)n1)C(=O)OCCF` [Example 9, 2-Fluoroethyl 2-{[6-(cyclopropylmethoxy)-5-(pyrrolidin-1-yl)pyridine-2-carbonyl]amino}-2-ethylbutanoate] showed a Ki of 3 nM.
Work on `C[C@@H](COCCF)NC(=O)c1ccc(N2CCCC2)c(OCC2CC2)n1` [Example 23, 6-(Cyclopropylmethoxy)-N-[(2S)-1-(2-fluoroethoxy)propan-2-yl]-5-(pyrrolidin-1-yl)pyridine-2-carboxamide] yielded a Ki of 490 nM.
With `CCC(CC)(COCF)NC(=O)c1ccc(N2CC(OC)C2)c(OCC2CC2)n1` [Example 34, 6-(Cyclopropylmethoxy)-N-{3-[(fluoromethoxy)methyl]pentan-3-yl}-5-(3-methoxyazetidin-1-yl) pyridine-2-carboxamide] the Ki was 33 nM.
`CC(C)C[C@@H](COCF)NC(=O)c1ccc(N2CCCC2)c(OCC2CC2)n1` [Example 16, 6-(Cyclopropylmethoxy)-N-[(2S)-1-(fluoromethoxy)-4-methylpentan-2-yl]-5-(pyrrolidin-1-yl)pyridine-2-carboxamide] was tested, and the Ki was 8 nM.
Work on `CCC(CC)(NC(=O)c1ccc(N2CC(OC)C2)c(OCC2CC2)n1)C(=O)OCCF` [Example 2, 2-Fluoroethyl 2-{[6-(cyclopropylmethoxy)-5-(3-methoxyazetidin-1-yl)pyridine-2-carbonyl]amino}-2-ethylbutanoate] yielded a Ki of 2 nM.
